Assay results from US4638070A, “Heterocyclic amino-alcohol derivatives” (Continental Pharma, priority 1980, dated 1987).

Tests used:
[1] = tested on: unanaesthetized, hypertension-suffering rat; test: Antihypertensive activity (systolic arterial pressure), oral; assay type: in vivo; details: 60 mg/kg, hypertensive rat, 3 hours
Description: (2) The antihypertensive activity was measured on unanaesthetized, hypertension-suffering rat. The tested substances were orally given at a rate of 60 mg/kg. The systolic arterial pressure was measured every 30 minutes for 2 hours before and for 3 hours after the tested product was given. Results are expressed as follows: […]
O: no reduction of arterial pressure.
+: reduction lower than 10 mm Hg.
++: reduction of 10 to 20 mm Hg.
+++: reduction higher than 20 mm Hg.

[2] = Acute toxicity, oral, LD50 (Litchfield and Wilcoxon); details: mouse, in vivo, fasted male mice, confidence limits p=95% in brackets
Description: (1) The acute toxicity was determined on fasted male mice. The tested substances were orally administered and LD50 values (lethal dose for 50% of animals) were calculated according to the method of Litchfield and Wilcoxon (J. Pharmacol. exp. Ther. 96, 94-113, 1949). These LD50 values are given in mg/kg and also, when possible, with their confidence limits for p=95%.

[3] = tested on: guinea-pig ileum (acetylcholine contractions); test: Antispasmodic activity in vitro, contractions caused by acetylcholine; details: added 15 minutes before spasm-producing agent
Description: (§1) (4) The antispasmodic activity was measured in vitro, on guinea-pig ileum, the contractions of which were caused by histammne (Hist.), acetylcholine (Achol) or barium chloride (BaCl2). The tested products were added to perfusion bath 15 minutes before the spasm-producing agents.
(§2) The dose is given in micograms (μg) per ml of bath causing complete spasm inhibition.

[4] = tested on: femoral artery; test: Vasodilator activity, femoral artery (technique of perfused paw); assay type: in vivo; design: key: O: no action; +: slight activity; ++: effect equal to half the effect of papaverine; +++: effect equal to that of papaverine; ++++: effect higher than that of papaverine; details: intra-arterial, 30 mg/kg, anaesthetized dog, vs papaverine at same dose
Description: (3) The vasodilator activity was measured at the level of femoral artery on anaesthetized dog (technique of perfused paw). The tested substances were given intra-arterially at the rate of 30 mg/kg. Results are expressed with respect to papaverine tested at the same dose.
++: effect equal to half the effect of papaverine.
+++: effect equal to that of papaverine.
++++: effect higher than that of papaverine.

[5] = tested on: guinea-pig ileum (histamine contractions); test: Antispasmodic activity in vitro, contractions caused by histamine; details: added 15 minutes before spasm-producing agent
Description: as §1, §2

Compound	ANTIHYPERTENSIVE ACTIVITY [1]	LD50 [2] [mg/kg]	ANTISPASMODIC ACTIVITY ACHOL (dose causing complete spasm inhibition) [3] [μg per ml]	VASODILATOR ACTIVITY [4]	ANTISPASMODIC ACTIVITY HIST. (dose causing complete spasm inhibition) [5] [μg per ml]
COCCOCCCNC(C)C(O)c1ccc2c(c1)CCC2 (stereo not drawn) [No 179]	+++ (reduction higher than 20 mm Hg)	250	–	–	–
COCCOCCCNC(C)C(O)c1ccc2c(c1)CCCS2 (stereo not drawn) [No 81]	+++ (reduction higher than 20 mm Hg)	–	16.7	++	16.7
CCCCCCCCCCCCCCNC(C)C(O)c1ccc2c(c1)CCCS2 (stereo not drawn) [No 76]	+ (reduction lower than 10 mm Hg)	> 4000	–	–	–
CCCCCCCCNC(C)C(OC(=O)CC)c1ccc2c(c1)CCCS2 (stereo not drawn) [No 131]	+ (reduction lower than 10 mm Hg)	> 4000	–	–	–
CC1Cc2cc(C(O)C(C)NCCCOc3ccccc3)ccc2S1 (stereo not drawn) [No 64]	+++ (reduction higher than 20 mm Hg)	–	1.7	+++	1.7
Cc1ccc(CCNC(C)C(O)c2ccc3c(c2)CC(C)S3)cc1 (stereo not drawn) [No 71]	+++ (reduction higher than 20 mm Hg)	–	0.8	+++	0.8
CC1Cc2cc(C(O)C(C)NCCCc3ccccc3)ccc2O1 (stereo not drawn) [No 69]	+++ (reduction higher than 20 mm Hg)	–	16.7	++	8.3
CC(C(O)c1ccc2c(c1)CCC2)N1CCOC(c2ccccc2)C1C (stereo not drawn) [No 177]	++ (reduction of 10 to 20 mm Hg)	–	1.7	–	1.7
CCCCCCCCNC(C)C(OC(=O)C(C)C)c1ccc2c(c1)CCCS2 (stereo not drawn) [No 139]	+++ (reduction higher than 20 mm Hg)	–	–	–	–
CCCCCCCC(=O)OC(c1ccc2c(c1)CCS2)C(C)NCCCCc1ccccc1 (stereo not drawn) [No 133]	+++ (reduction higher than 20 mm Hg)	2600	–	–	–
COCCOCCCNC(C)C(O)c1ccc2c(c1)CCS2 (stereo not drawn) [No 129]	+++ (reduction higher than 20 mm Hg)	250	–	–	–
CCC(NCCOc1ccccc1)C(O)c1ccc2c(c1)CCS2 (stereo not drawn) [No 126]	+++ (reduction higher than 20 mm Hg)	> 4000	–	–	–
Cc1ccc(CCCCNC(C)C(O)c2ccc3c(c2)CCCCS3)cc1 (stereo not drawn) [No 30]	+++ (reduction higher than 20 mm Hg)	–	0.8	+++	1.7
CC(NCCCCc1ccccc1)C(O)c1ccc2c(c1)CCCC2 (stereo not drawn) [No 171]	+ (reduction lower than 10 mm Hg)	–	0.8	+++	0.8
CC(NCCCN1CCCC1=O)C(O)c1ccc2c(c1)CCCS2 (stereo not drawn) [No 77]	–	235	1.7	0	0.8
CCC(NCCCCc1ccccc1)C(O)c1ccc2c(c1)CCCS2 (stereo not drawn) [No 135]	+++ (reduction higher than 20 mm Hg)	> 4000	–	–	–
CC1Cc2cc(C(O)C(C)NCCCN3CCCC3)ccc2O1 (stereo not drawn) [No 62]	–	885	> 16.7	0	> 16.7
CC(NCCOc1ccc(C#N)cc1)C(O)c1ccc2c(c1)CCS2 (stereo not drawn) [No 85]	+++ (reduction higher than 20 mm Hg)	–	16.7	+++	8.3
